From BindingDB's records for doi:10.1074/jbc.M113.537704 (Icahn School Of Medicine At Mount Sinai, 2014) come the findings set out here.

The target of assay [1] is EEF1AKMT4-ECE2 readthrough transcript protein (Homo sapiens, UniProt P0DPD8). Kind of assay: Enzyme Activity Assay. The following applies: pH 5.5. The method, then: (§1) Recombinant ECE2 (32.5 ng) with a specific activity of 12 pmol/min/μg protein was generated as described previously. Secreted soluble recombinant ECE1 (30 ng) with a specific activity of 750 pmol/min/μg protein was generated and purified using a protocol similar to that used for ECE2. Solubilized midbrain membranes (10 μg) from wildtype or ECE2 knock-out mice were prepared as described. Enzymatic activity, in the absence or presence of the ECE2 inhibitor S136492 or the ECE1 inhibitor SM19712, was assayed using the synthetic quenched fluorescent substrate McaBk2 (10 μM) at 37 °C with either 0.2 M sodium acetate buffer, pH 5.5, or 50 mM Tris-Cl buffer, pH 7.4, as described previously [Gagnidze et al., J. Med. Chem., 51:3378-3387; Ouimet et al., J. Biol. Chem., 285:34390-34400].
EEF1AKMT4-ECE2 readthrough transcript protein, sequence (P0DPD8 whole entry): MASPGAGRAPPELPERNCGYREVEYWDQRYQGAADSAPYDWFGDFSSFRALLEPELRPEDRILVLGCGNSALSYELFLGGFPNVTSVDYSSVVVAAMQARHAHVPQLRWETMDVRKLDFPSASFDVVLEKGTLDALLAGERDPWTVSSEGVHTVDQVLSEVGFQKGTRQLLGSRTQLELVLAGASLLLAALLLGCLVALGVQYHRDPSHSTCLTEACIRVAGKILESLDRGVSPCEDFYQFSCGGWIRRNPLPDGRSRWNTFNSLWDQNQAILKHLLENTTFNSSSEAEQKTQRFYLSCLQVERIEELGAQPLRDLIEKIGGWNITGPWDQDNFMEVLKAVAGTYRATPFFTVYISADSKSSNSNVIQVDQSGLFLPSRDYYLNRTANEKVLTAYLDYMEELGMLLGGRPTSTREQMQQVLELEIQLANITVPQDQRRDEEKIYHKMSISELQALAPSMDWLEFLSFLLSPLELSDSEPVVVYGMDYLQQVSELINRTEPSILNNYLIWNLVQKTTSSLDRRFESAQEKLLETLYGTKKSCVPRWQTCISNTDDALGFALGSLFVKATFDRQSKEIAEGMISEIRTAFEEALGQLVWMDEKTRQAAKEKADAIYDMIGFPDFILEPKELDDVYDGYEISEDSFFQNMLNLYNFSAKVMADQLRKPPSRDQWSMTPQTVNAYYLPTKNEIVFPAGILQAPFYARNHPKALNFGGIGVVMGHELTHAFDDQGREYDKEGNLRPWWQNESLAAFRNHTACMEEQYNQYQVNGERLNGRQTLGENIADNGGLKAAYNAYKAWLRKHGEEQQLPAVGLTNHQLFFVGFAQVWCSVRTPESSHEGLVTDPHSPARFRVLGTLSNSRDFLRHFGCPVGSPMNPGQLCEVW

Assay [2] addresses T1, Endothelin-converting enzyme 1 (Homo sapiens, UniProt P42892).
T1 sequence (P42892 whole entry): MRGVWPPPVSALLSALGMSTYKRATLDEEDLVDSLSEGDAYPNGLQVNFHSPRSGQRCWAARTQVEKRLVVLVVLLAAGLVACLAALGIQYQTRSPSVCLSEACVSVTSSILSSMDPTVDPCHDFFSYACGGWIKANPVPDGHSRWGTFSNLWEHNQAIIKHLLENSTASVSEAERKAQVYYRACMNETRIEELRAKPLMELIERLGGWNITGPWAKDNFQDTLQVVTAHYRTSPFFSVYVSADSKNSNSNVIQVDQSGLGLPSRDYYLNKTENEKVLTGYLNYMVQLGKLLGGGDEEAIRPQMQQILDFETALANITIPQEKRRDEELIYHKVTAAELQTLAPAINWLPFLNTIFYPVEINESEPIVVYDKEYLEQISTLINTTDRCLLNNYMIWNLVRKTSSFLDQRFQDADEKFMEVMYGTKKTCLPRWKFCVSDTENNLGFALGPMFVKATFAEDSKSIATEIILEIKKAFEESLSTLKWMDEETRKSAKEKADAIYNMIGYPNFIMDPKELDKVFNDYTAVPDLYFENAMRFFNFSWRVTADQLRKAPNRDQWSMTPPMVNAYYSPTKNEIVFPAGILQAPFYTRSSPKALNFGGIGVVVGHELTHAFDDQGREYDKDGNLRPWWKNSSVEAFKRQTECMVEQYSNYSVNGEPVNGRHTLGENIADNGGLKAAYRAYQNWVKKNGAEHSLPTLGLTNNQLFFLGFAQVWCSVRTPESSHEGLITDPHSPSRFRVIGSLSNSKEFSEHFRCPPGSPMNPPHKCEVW
Kind of assay: Enzyme Activity Assay. On the procedure: as §1

As to `Cc1[nH]nc(NC(=O)NS(=O)(=O)c2ccc(Cl)cc2)c1C#N` [SM19712], the IC50 (commonly the concentration at which inhibition is half-maximal) is 5 nM in assay [1], greater than 100000 nM in assay [2] (pH 5.5) and 1100 nM in assay [2] (pH 7.4).
The matching figures for `Oc1ccccc1/C=C\c1ccc2ccccc2n1` [2-(2-(quinolin-2-yl)vinyl)phenol]: 1600 nM, greater than 100000 nM and greater than 100000 nM.
